Source: the NIST ThermoML archive (doi:10.1021/je030127e)
Numbers after ± are expanded uncertainties.

Tests used:
[1] = 101.3 kPa, Liquid; for viscosity: Capillary tube (Ostwald / Ubbelohde) method
[2] = xn = mol fraction of the nth substance listed; settings: 101.3 kPa, Liquid, x1 = 1; for viscosity: Capillary tube (Ostwald / Ubbelohde) method

Row | viscosity ([1]; 293.15 K) [mPa·s] | speed of sound ([1]; 298.15 K) [m/s] | viscosity ([1]; 298.15 K) [mPa·s] | viscosity ([1]; 303.15 K) [mPa·s] | viscosity ([2]; 293.15 K) [mPa·s] | viscosity ([2]; 298.15 K) [mPa·s] | speed of sound ([2]; 298.15 K) [m/s] | viscosity ([2]; 303.15 K) [mPa·s] | Compound
1 | 0.525 ± 0.005 | 1251.6 ± 1.1 | 0.496 ± 0.005 | 0.467 ± 0.005 |  |  |  |  | CCCCN [1-butanamine]
2 | 1.708 ± 0.013 | 1344.5 ± 1.1 | 1.544 ± 0.012 | 1.404 ± 0.011 |  |  |  |  | COCCO [2-methoxyethan-1-ol]
3 |  |  |  |  | 1.708 ± 0.013 | 1.544 ± 0.012 | 1344.5 ± 1.1 | 1.404 ± 0.011 | COCCO [2-methoxyethan-1-ol] + CCCCN
